Test results: patent US20190152962A1, “CYCLOPROPYL DERIVATIVES AS ROR-GAMMA MODULATORS” (CADILA HEALTHCARE LIMITED, priority 2016, published 2019)
pIC50: −log10 of the molar value.

Key:
[1] = molecular target: T1, full length human RORγt (Homo sapiens, UniProt P51449); assay: 5×RORE based luciferase assay; assay type: cell-based; conditions: COS-7 cells transfected with 5×RORE-Luc and hRORγt, 18-20 h treatment
T1 construct: full length human RORγt together in COS-7 cells; expressed in transfected cells; host or cells: COS-7
T1 sequence (P51449 1-497 isoform P51449-2): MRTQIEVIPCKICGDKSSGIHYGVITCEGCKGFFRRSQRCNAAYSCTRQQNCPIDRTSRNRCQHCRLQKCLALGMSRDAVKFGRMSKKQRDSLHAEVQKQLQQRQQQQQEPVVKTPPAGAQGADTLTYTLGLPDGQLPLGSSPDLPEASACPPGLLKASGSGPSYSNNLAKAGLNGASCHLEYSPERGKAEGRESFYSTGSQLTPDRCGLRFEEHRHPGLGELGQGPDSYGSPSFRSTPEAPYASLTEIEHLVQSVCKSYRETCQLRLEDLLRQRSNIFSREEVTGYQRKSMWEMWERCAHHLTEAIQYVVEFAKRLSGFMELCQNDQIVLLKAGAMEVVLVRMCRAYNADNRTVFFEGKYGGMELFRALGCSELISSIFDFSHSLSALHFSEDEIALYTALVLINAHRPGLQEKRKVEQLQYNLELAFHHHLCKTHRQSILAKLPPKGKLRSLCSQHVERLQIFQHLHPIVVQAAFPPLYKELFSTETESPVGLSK
Experimental: Human RORγt (hRORγt) inhibitors were screened in RORE (RORγt Response Element) based Luciferase assay by transient transfection of 5×RORE (5 tandem repeats of RORγt Response Element) and full length human RORγt together in COS-7 cells. COS-7 cells were maintained as monolayer in complete DMEM (High Glucose) medium in presence of 2 mM Glutamin and 1× Sodium Pyruvate. Day before transfection, 15000 cells were seeded in 96 well cell culture plate in 100 μl antibiotic free medium and incubated at 37° C. in 5% CO2 containing humidified chamber O/N. Prior to transfection, cells were fed with fresh complete growth medium and incubated until the addition of transfection complex. Transfection complex for the required numbers of wells were prepared from pGL2-promoter-5×RORE-Luc plasmid, pcDNA3.1 (+)-hRORγt expression plasmid, pβ-GAL plasmid (transfection control), and Lipofectamine 3000 (Invitrogen). 50 μl of transfection complex were added in 100 μl of complete medium to respective wells, mixed gently and plate was incubated for 5-6 h at 37° C. in 5% CO2 containing humidified chamber. After 5 h of transfection, content of the wells were aspirated and cells were treated with increasing concentration of RORγt inverse agonist in medium devoid of serum with a final DMSO concentration of 0.2% for 18-20 h at 37° C. in 5% CO2 containing humidified chamber. Next day, cells were lysed and the lysates were assayed for luciferase and β-GAL activity using Promega's luciferase assay system and an in-house made β-GAL assay buffer respectively. Luciferase signals were normalized with β-GAL and % activity was determined with respect to that of 10 nM control ligand.
IC50 of selected compounds were then determined by nonlinear regression analysis of % activity, plotted against compound concentration (Table 4).

[2] = system: secreted IL-17 in peripheral blood mononuclear cells (PBMCs); assay: Human IL-17 inhibition assay; assay type: cell-based; conditions: PBMC, anti-CD3/anti-CD28, 72 h, read-out: IL17 IC50
Experimental: Peripheral blood mononuclear cells (PBMCs) were isolated from healthy volunteers and subjected to T cell polarization assay. Two million PBMCs were placed on anti-CD3 (Biolegend, US) coated 96-well plates and 1 μg/mL of anti-CD28 (Biolegend, US) was added along with RORγt inhibitors or the vehicle control and incubated at 37° C. and 5% CO2 for 72 h. At the end of incubation time, the supernatant was collected and analyzed for secreted IL-17 using sandwich enzyme immunoassay (Mabtech AB, Sweden). The results were analyzed using Graphpad Prism and the half-maximal inhibitory concentrations (IC50) of the test compounds were derived (Table 4).

CCS(=O)(=O)c1ccc(CC(=O)Nc2cc(Cl)c(C3(c4noc(-c5ccc(C#N)cc5)n4)CC3)c(Cl)c2)nc1 [Example 53, N-(3,5-dichloro-4-(1-(5-(4-cyanophenyl)-1,2,4-oxadiazol-3-yl)cyclopropyl)phenyl)-2-(5-(ethylsulfonyl)pyridin-2-yl)acetamide]
pIC50 [1]: 8.72
pIC50 [2]: 7.32

CCS(=O)(=O)c1ccc(CC(=O)Nc2cc(Cl)c(C3(c4nc5ccc(F)cc5o4)CC3)c(Cl)c2)nc1 [Example 58, N-(3,5-dichloro-4-(1-(6-fluorobenzo[d]oxazol-2-yl)cyclopropyl)phenyl)-2-(5-(ethylsulfonyl)pyridin-2-yl)acetamide]
pIC50 [1]: 8.47
pIC50 [2]: 7.63

CCS(=N)(=O)c1ccc(CC(=O)Nc2cc(Cl)c(C3(c4noc(-c5ccc(F)cc5)n4)CC3)c(Cl)c2)cc1 (stereo not drawn) [Example 61, N-(3,5-dichloro-4-(1-(5-(4-fluorophenyl)-1,2,4-oxadiazol-3-yl)cyclopropyl)phenyl)-2-(4-(ethylsulfonimidoyl)phenyl)acetamide]
pIC50 [1]: 8.04
pIC50 [2]: 7.46

O=C(Cc1ccc(S(=O)(=O)NC2CC2)cc1)Nc1cc(Cl)c(C2(c3noc(-c4ccc(F)cc4)n3)CC2)c(Cl)c1 [Example 63, 2-(4-(N-cyclopropylsulfamoyl)phenyl)-N-(3,5-dichloro-4-(1-(5-(4-fluorophenyl)-1,2,4-oxadiazol-3-yl)cyclopropyl)phenyl)acetamide]
pIC50 [1]: 7.96
pIC50 [2]: 7.74

O=C(Cc1ccc(S(=O)(=O)NC2CC2)cc1)Nc1cc(Cl)c(C2(c3noc(-c4ccc(C(F)(F)F)cc4)n3)CC2)c(Cl)c1 [Example 64, 2-(4-(N-cyclopropylsulfamoyl)phenyl)-N-(3,5-dichloro-4-(1-(5-(4-(trifluoromethyl)phenyl)-1,2,4-oxadiazol-3-yl)cyclopropyl)phenyl)acetamide]
pIC50 [1]: 7.80
pIC50 [2]: 7.20

O=C(Cc1ccc(S(=O)(=O)NC2CC2)cc1)Nc1cc(Cl)c(C2(c3nc4ccc(F)cc4o3)CC2)c(Cl)c1 [Example 65, 2-(4-(N-cyclopropylsulfamoyl)phenyl)-N-(3,5-dichloro-4-(1-(6-fluorobenzo[d]oxazol-2-yl)cyclopropyl)phenyl)acetamide]
pIC50 [1]: 8.62
pIC50 [2]: 8.22

CCS(=O)(=O)c1ccc(CC(=O)Nc2cc(Cl)c(C3(c4noc(-c5ccc(F)c(F)c5)n4)CC3)c(Cl)c2)cn1 [Example 68, N-(3,5-dichloro-4-(1-(5-(3,4-difluorophenyl)-1,2,4-oxadiazol-3-yl)cyclopropyl)phenyl)-2-(6-(ethylsulfonyl)pyridin-3-yl)acetamide]
pIC50 [1]: 8.02
pIC50 [2]: 7.37

CCS(=O)(=O)c1ccc(CC(=O)Nc2cc(Cl)c(C3(c4noc(-c5ccc(F)cc5F)n4)CC3)c(Cl)c2)cn1 [Example 69, N-(3,5-dichloro-4-(1-(5-(2,4-difluorophenyl)-1,2,4-oxadiazol-3-yl)cyclopropyl)phenyl)-2-(6-(ethylsulfonyl)pyridin-3-yl)acetamide]
pIC50 [1]: 8.19
pIC50 [2]: 7.65

CCS(=O)(=O)c1ccc(CC(=O)Nc2cc(Cl)c(C3(c4noc(-c5ccc(F)c(Cl)c5)n4)CC3)c(Cl)c2)cn1 [Example 70, N-(3,5-dichloro-4-(1-(5-(3-chloro-4-fluorophenyl)-1,2,4-oxadiazol-3-yl)cyclopropyl)phenyl)-2-(6-(ethylsulfonyl)pyridin-3-yl)acetamide]
pIC50 [1]: 7.77
pIC50 [2]: 7.66

CCS(=O)(=O)c1ccc(CC(=O)Nc2cc(Cl)c(C3(c4noc(-c5ccc(Cl)c(Cl)c5)n4)CC3)c(Cl)c2)cn1 [Example 71, N-(3,5-dichloro-4-(1-(5-(3,4-dichlorophenyl)-1,2,4-oxadiazol-3-yl)cyclopropyl)phenyl)-2-(6-(ethylsulfonyl)pyridin-3-yl)acetamide]
pIC50 [1]: 7.80
pIC50 [2]: 7.49

CCS(=O)(=O)c1ccc(CC(=O)Nc2cc(Cl)c(C3(c4noc(-c5ccc(Cl)cc5)n4)CC3)c(Cl)c2)cn1 [Example 72, N-(3,5-dichloro-4-(1-(5-(4-chlorophenyl)-1,2,4-oxadiazol-3-yl)cyclopropyl)phenyl)-2-(6-(ethylsulfonyl)pyridin-3-yl)acetamide]
pIC50 [1]: 7.70
pIC50 [2]: 7.68

CCS(=O)(=O)c1ccc(CC(=O)Nc2cc(Cl)c(C3(c4noc(-c5ccc(C#N)cc5)n4)CC3)c(Cl)c2)cn1 [Example 73, N-(3,5-dichloro-4-(1-(5-(4-cyanophenyl)-1,2,4-oxadiazol-3-yl)cyclopropyl)phenyl)-2-(6-(ethylsulfonyl)pyridin-3-yl)acetamide]
pIC50 [1]: 7.75
pIC50 [2]: 7.63

CCS(=O)(=O)c1ccc(CC(=O)Nc2cc(Cl)c(C3(c4nc5ccc(F)cc5o4)CC3)c(Cl)c2)cn1 [Example 74, N-(3,5-dichloro-4-(1-(6-fluorobenzo[d]oxazol-2-yl)cyclopropyl)phenyl)-2-(6-(ethylsulfonyl)pyridin-3-yl)acetamide]
pIC50 [1]: 7.62
pIC50 [2]: 7.62

CCS(=O)(=O)c1cnc(CC(=O)Nc2cc(Cl)c(C3(c4nc5ccc(F)cc5o4)CC3)c(Cl)c2)cn1 [Example 78, N-(3,5-dichloro-4-(1-(6-fluorobenzo[d]oxazol-2-yl)cyclopropyl)phenyl)-2-(5-(ethylsulfonyl)pyrazin-2-yl)acetamide]
pIC50 [1]: 8.10
pIC50 [2]: 7.33

CCS(=O)(=O)c1ccc(CC(=O)Nc2cc(Cl)c(C3(c4nnc(-c5ccc(F)cc5)o4)CC3)c(Cl)c2)cc1 [Example 79, N-(3,5-dichloro-4-(1-(5-(4-fluorophenyl)-1,3,4-oxadiazol-2-yl)cyclopropyl)phenyl)-2-(4-(ethylsulfonyl)phenyl)acetamide]
pIC50 [1]: 7.91
pIC50 [2]: 7.41
